This is an account of results in article PMC4149842 (ChemMedChem, 2014).

Where two headings read alike, the source gives them in different places.

As a reminder, the IC50 is the concentration at which inhibition is half-maximal. Lower therefore signals greater potency in that assay.

In test [1] the target is T1, human equilibrative nucleoside transporter 1 (hENT1) (Homo sapiens, UniProt Q99808).
T1 sequence (Q99808 2-456): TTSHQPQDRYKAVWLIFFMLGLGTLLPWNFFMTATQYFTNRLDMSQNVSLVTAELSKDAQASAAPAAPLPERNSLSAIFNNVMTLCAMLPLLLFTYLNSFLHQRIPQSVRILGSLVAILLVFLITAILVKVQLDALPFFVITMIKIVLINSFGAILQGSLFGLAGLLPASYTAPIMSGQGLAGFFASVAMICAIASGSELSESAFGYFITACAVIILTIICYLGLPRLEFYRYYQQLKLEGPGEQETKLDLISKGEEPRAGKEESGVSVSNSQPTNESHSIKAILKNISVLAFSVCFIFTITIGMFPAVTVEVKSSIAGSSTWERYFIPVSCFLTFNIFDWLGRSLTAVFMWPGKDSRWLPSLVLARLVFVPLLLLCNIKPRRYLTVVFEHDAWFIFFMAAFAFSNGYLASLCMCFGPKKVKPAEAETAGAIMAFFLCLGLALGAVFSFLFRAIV
As to the kind of experiment: inhibition of initial rate of 3H-uridine. Format: cell-based.

The target of test [2] is T1, human equilibrative nucleoside transporter 1 (hENT1). As to the kind of experiment: inhibition of initial rate of 3H-uridine. The test is classed as cell-based. This is another data set of the same source.

`O=[N+]([O-])c1ccc(CNc2ncnc3c2ccn3[C@@H]2O[C@H](CO)[C@@H](O)[C@H]2O)cc1` [2b, 4-(4-Nitrobenzylamino)-7-(β-D-ribofuranosyl)pyrrolo[2,3-d]pyrimidine]: the IC50 in test [1] is more than 1000 nM.

With `NC(=O)c1cn([C@@H]2O[C@H](CO)[C@@H](O)[C@H]2O)c2ncnc(NCc3ccc([N+](=O)[O-])cc3)c12` [2c, 5-Carboxamido-4-(4-nitrobenzylamino)-7-(β-D-ribofuranosyl)pyrrolo[2,3-d]pyrimidine], the IC50 in test [2] was 123 ± 31 nM.
